From ChEMBL document CHEMBL4421724, “2-benzoylaminobenzamide derivatives as bcl-3 inhibitors” (2016)
The source made the active and inactive calls. The calls are words filed in the database; no cut-off is given here.

Assays:
HEK293 = test: Toxicity against HEK293 cells assessed as reduction in cell viability at 10 uM incubated for 24 hrs by cell titre blue viability assay relative to control; assay type: cell-based; conditions: human, hek293, 24 h
MDA-MB-231 [1] = test: Toxicity against human MDA-MB-231 cells assessed as reduction in cell viability at 10 uM incubated for 24 hrs by cell titre blue viability assay relative to control; assay type: cell-based; conditions: mda-mb-231, 24 h
[2] = molecular target: T1, B-cell lymphoma 3 protein (Homo sapiens) (UniProt P20749); test: Inhibition of Bcl-3 in human MDA-MB-231 cells assessed as reduction in NF-kappaB signalling at 1 uM incubated for 24 hrs by NF-kappaB promoter dependent luciferase reporter gene assay; assay type: cell-based
T1 sequence (whole entry): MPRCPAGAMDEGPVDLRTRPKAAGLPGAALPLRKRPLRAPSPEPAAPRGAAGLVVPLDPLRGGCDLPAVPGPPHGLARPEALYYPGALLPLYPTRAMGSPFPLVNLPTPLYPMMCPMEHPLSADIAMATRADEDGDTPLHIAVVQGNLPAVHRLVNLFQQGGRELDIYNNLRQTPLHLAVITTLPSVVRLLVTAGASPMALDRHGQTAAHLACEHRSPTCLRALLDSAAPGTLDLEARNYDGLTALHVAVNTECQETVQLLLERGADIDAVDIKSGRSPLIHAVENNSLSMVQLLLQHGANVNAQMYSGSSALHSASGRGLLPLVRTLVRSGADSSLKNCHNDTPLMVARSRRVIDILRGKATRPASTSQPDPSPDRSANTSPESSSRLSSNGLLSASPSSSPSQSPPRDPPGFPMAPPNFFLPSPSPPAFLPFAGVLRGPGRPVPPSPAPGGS

MDA-MB-231 [3] = test: Inhibition of cell migration of human MDA-MB-231 cells overexpressing Bcl-3 assessed as cell motility at 10 nM incubated for 24 hrs by Boyden chamber assay relative to control; assay type: functional; design: scale not given: the % may be the effect or the level left
[4] = Solubility in DMSO assessed per 100 ml; assay type: physicochemical
[5] = Solubility in dichloromethane assessed per 100 ml; assay type: physicochemical
[6] = Solubility in methanol assessed per 100 ml; assay type: physicochemical
[7] = Solubility in ethyl acetate assessed per 100 ml; assay type: physicochemical
[8] = Solubility in diethyl ether assessed per 100 ml; assay type: physicochemical
[9] = Solubility in ethanol assessed per 100 ml; assay type: physicochemical
[10] = Solubility in water assessed per 100 ml; assay type: physicochemical; conditions: buffer
MDA-MB-231 [11] = test: Inhibition of cell migration of human MDA-MB-231 cells overexpressing Bcl-3 assessed as reduction in cell motility incubated for 24 hrs by Boyden chamber assay; assay type: functional, cell-based; conditions: MDA-MB-231, 24 h

| SMILES | Activity (HEK293) | Activity (MDA-MB-231 [1]) | further results |
| --- | --- | --- | --- |
| COc1cc(C(=O)Nc2ccccc2C(=O)NCCN2CCOCC2)cc(OC)c1OC | > 90% | > 90% |  |
| COc1cccc(C(=O)NCCN2CCOCC2)c1NC(=O)c1ccccc1F | > 70% | > 70% |  |
| COc1cccc(C(=O)Nc2ccccc2C(=O)NCCN2CCOCC2)c1 | > 70% | > 70% |  |
| O=C(Nc1ccccc1C(=O)NCCN1CCOCC1)c1ccc(F)cc1F | > 90% | > 90% |  |
| O=C(Nc1ccccc1C(=O)NCCc1ccccn1)c1ccccc1F | > 70% | > 70% |  |
| O=C(Nc1ccccc1C(=O)NCCN1CCOCC1)c1ccc([N+](=O)[O-])cc1 | > 70% | > 70% |  |
| O=C(Nc1ccc(I)cc1C(=O)NCCN1CCOCC1)c1ccccc1F |  |  | inhibition [2]: Active |
| COc1ccc(C(=O)Nc2ccccc2C(=O)NCCN2CCOCC2)cc1 | > 70% | > 70% | inhibition [2]: Active; Activity (MDA-MB-231 [3]): <50% |
| Cl.O=C(Nc1ccccc1C(=O)NCCN1CCOCC1)c1ccccc1F |  |  | solubility [4]: < 0.01 g; solubility [5]: 0.9 g; solubility [6]: 0.59 g; solubility [7]: 0.02 g; solubility [8]: 0.01 g; solubility [9]: 0.19 g; solubility [10]: 0.95 g |
| O=C(Nc1ccccc1C(=O)NCN1CCCC1)c1ccccc1F | > 70% | > 70% | IC50 (MDA-MB-231 [11]): 3.65 µM |
| O=C(Nc1cccc(Cl)c1C(=O)NCCN1CCOCC1)c1ccccc1F | > 70% | > 70% |  |
| COc1ccc(C(=O)Nc2ccccc2C(=O)NCCN2CCOCC2)cc1OC | > 90% | > 90% |  |
| NCCNC(=O)c1ccccc1NC(=O)c1ccccc1F | > 70% | > 70% |  |
| O=C(Nc1ccccc1C(=O)NCCN1CCOCC1)c1ccccc1F [listing 1 of 2 here] |  |  | inhibition [2]: Active |
| O=C(Nc1ccccc1C(=O)NCCCN1CCOCC1)c1ccccc1F | > 70% | > 70% | inhibition [2]: Active |
| COc1cc(OC)cc(C(=O)Nc2ccccc2C(=O)NCCN2CCOCC2)c1 | > 90% | > 90% |  |
| Cc1cccc(C(=O)NCCN2CCOCC2)c1NC(=O)c1ccccc1F | > 70% | > 70% |  |
| O=C(Nc1ccccc1C(=O)NCCN1CCOCC1)c1cc(F)cc(F)c1 | > 90% | > 90% |  |
| O=C(NCCN1CCOCC1)c1ccccc1NC(=O)c1ccccc1[N+](=O)[O-] | > 70% | > 70% |  |
| O=C(Nc1ccccc1C(=O)NCCN1CCCCC1)c1ccccc1F | > 70% | > 70% | inhibition [2]: Active |
| O=C(NCCN1CCOCC1)c1ccccc1NC(=O)c1c(F)cccc1F | > 90% | > 90% |  |
| Cc1ccccc1C(=O)Nc1ccccc1C(=O)NCCN1CCOCC1 | > 70% | > 70% |  |
| O=C(Nc1ccccc1C(=O)NCCN1CCOCC1)c1ccc(F)cc1 | > 70% | > 70% |  |
| O=C(Nc1ccccc1C(=O)NCCN1CCOCC1)c1ccccc1F [listing 2 of 2 here] | > 70% | > 70% | solubility [4]: 3.71 g; solubility [5]: 2.91 g; solubility [6]: 0.2 g; solubility [7]: 0.34 g; solubility [8]: 0.09 g; solubility [9]: 0.09 g; solubility [10]: < 0.01 g |
